“Also recorded” adds a separate entry of the source. Each block holds one compound with its values, some of them ahead of it.
Legend:
α2-ARs [1] = conditions: previously described, reference 9; cited from earlier work
α2-ARs [2] = experiment: [3H]RX821002 competition binding assay in human brain PFC membranes; conditions: 31a vs 10b, 31b vs 17b
Experimental: (§1) Preparation of membranes. Neural membranes (P2 fractions) were prepared from the PFC of human brains obtained at autopsy in the Instituto Vasco de Medicina Legal, Bilbao, Spain. Postmortem human brain samples of each subject (˜1 g) were homogenized using a Teflon-glass grinder (10 up-and-down strokes at 1500 rpm) in 30 volumes of homogenization buffer (1 mM MgCl2, and 5 mM Tris-HCl, pH 7.4) supplemented with 0.25 M sucrose. The crude homogenate was centrifuged for 5 min at 1000×g ([…]) and the supernatant was centrifuged again for 10 min at 40000×g (4° C.). The resultant pellet was washed twice in 20 volumes of homogenization buffer and recentrifuged in similar conditions. Aliquots of 1 mg protein were stored at −70° C. until assay.
[^3H]RX821002 binding assays. […] Incubations were terminated by diluting the samples with 5 ml of ice-cold Tris incubation buffer (4° C.). Membrane bound [^3H]RX821002 was separated by vacuum filtration through Whatman GF/C glass fibre filters. Then, the filters were rinsed twice with 5 ml of incubation buffer and transferred to minivials containing 3 ml of OptiPhase “HiSafe” II cocktail and counted for radioactivity by liquid scintillation spectrometry. Specific binding was determined and plotted as a function of the compound concentration. Non-specific binding was determined in the presence of adrenaline (10^−5 M).
Analysis of binding data. Analysis of competition experiments to obtain the inhibition constant (Ki) were performed by nonlinear regression using the GraphPad Prism program. All experiments were analysed assuming a one-site model of radioligand binding. Ki values were normalized to pKi values.

α2-ARs [3] = conditions: starred compounds, affinity reported in reference 9 by the same group; cited from earlier work
α2-ARs [4] = biological target: T1, α2-ARs (Homo sapiens, UniProt P08913); experiment: [35S]GTPγS binding functional assay, compounds alone; assay type: biochemical; conditions: for agonistic or antagonistic properties in [35S]GTPγS experiments: human brain PFC; for stimulation of [35S]GTPγS binding by the compound on its own: human brain PFC membranes; for Emax: read-out: Emax (%), percentage efficacy relative to UK14304
T1 construct: other: human brain tissue in vitro; other: stimulation of [35S]GTPγS b
Experimental: The [^35S]GTPγs binding assay constitutes a functional measure of the interaction of the receptor and the G-protein and is a useful tool to distinguish between agonists (increasing the nucleotide binding), inverse agonists (decreasing the nucleotide binding), and neutral antagonists (not affecting the nucleotide binding) of GPCRs.^20 Experiments were performed in low-affinity receptor conditions for agonists (presence of guanine nucleotides and sodium in the medium), and therefore, typical potency values are two-three logarithmic units lower than affinity values obtained in radioligand receptor binding experiments.^20
as §1
[^35S]GTPγs binding assays. The incubation buffer for measuring [^35S]GTPγs binding to brain membranes contained, in a total volume of 500 μL, 1 mM EGTA, 3 mM MgCl2, 100 mM NaCl, […], 50 mM Tris-HCl at pH 7.4 and 0.5 nM [^35S]GTPγs. Proteins aliquots were thawed and re-suspended in the same buffer. The incubation was started by addition of the membrane suspension (40 μg of membrane proteins) to the previous mixture and was performed at 30° C. for 120 min with shaking. In order to evaluate the influence of the compounds on [^35S]GTPγs binding, 8 concentrations (10^−10 to 10^−3M) of the different compounds were added to the assay. Incubations were terminated by adding 3 mL of ice-cold re-suspension buffer followed by rapid filtration through Whatman GF/C filters pre-soaked in the same buffer. The filters were rinsed twice with 3 mL of ice-cold re-suspension buffer, transferred to vials containing 5 mL of OptiPhase HiSafe II cocktail (Wallac, UK) and the radioactivity trapped was determined by liquid scintillation spectrometry (Packard 2200CA). […] Non-specific binding of the radioligand was defined as the remaining [^35S]GTPγs binding in the presence of 10 μM unlabelled GTPγs.

α2-ARs [5] = biological target: T1, α2-ARs; experiment: [3H]RX821002 competition binding assay in human brain PFC membranes; conditions: human brain tissue in vitro
[6] = test system: extracellular NA levels in the PFC; experiment: In vivo microdialysis in the PFC, extracellular NA; set-up: species or system male Sprague Dawley rats; conditions: for Emax of increase in extracellular NA levels: local administration by reverse dialysis 1-100 μM in PFC, percentage of basal values
From the text: Intracerebral microdialysis is a neurochemical technique that has been applied extensively in pharmacological studies aimed at investigating the effect of different drugs on brain neurotransmission. This technique allows one to collect a representative concentration of different neurotransmitters of the area where the probe is implanted while the animals are awake and freely moving.^21
Most antidepressant drugs are able to increase NA extracellular concentrations in different brain areas as the PFC, an area implicated in depression disease. Considering that α2-ARs exert a tonic inhibitory action on NA release from the noradrenergic terminals we assessed the ability of these two new compounds to increase NA extracellular concentration in this area. First, we tested the drugs when administered locally in order to confirm their antagonistic activity over α2-ARs in vivo.
A second step was to study the effect of these compounds increasing NA extracellular concentrations when administered systemically.
In Vivo Microdialysis assays. The experiments were carried out in male Sprague Dawley rats weighing between 250 g and 300 g. At the beginning of the experiments, animals were anaesthetized with chloral hydrate (400 mg/kg i.p.) and a microdialysis probe was implanted by stereotaxic surgery into prefrontal cortex (PFC) brain area. The coordinates selected for the PFC were as follows: AP (anterior to bregma) +2.8 mm, L (lateral from the mid-sagittal suture) +1 mm, DV (ventral from the dura surface) −5 mm.^22 After 24 hours for animal recovery, perfusion fluid (artificial cerebrospinal fluid) is pumped through the probe at a flow rate of 1 μl/min. In the semipermeable membrane, that is the critical side of the probe and is placed on the selected area, molecules flow into and out the cannulae by diffusion. Therefore, microdialysis technique allows local administration of substrates dissolved in the perfusion fluids.
When drugs were locally administered, they were dissolved in a CSF and applied during 70 min via dialysis probe implanted in the PFC in increasing concentrations of 1, 10 and 100 μM. The compounds systemically administered were dissolved in saline and injected intraperitoneally.
Samples, collected with the microdialysis procedure (every 35 min), were analyzed by HPLC with electrochemical detection. NA concentrations were monitorizated by an amperometric detector (Hewlett-Packard model 1049A) at an oxidizing potential of +650 mV. The movil phase (12 mM citric acid, 1 mM EDTA, 0.7 mM octylsodio sulfate, pH 5 and 10% methanol) was filtered, degassed (Hewlett-Packard model 1100 degasser) and delivered at a flow rate of 0.2 ml/min by a Hewlett-Packard model 1100 pump. Stationary phase was a column of 150×2.1 mm (Thermo Electron Corporation, U.S.A.). Samples (injection volume 37 μl) were injected and NA analized in a run time of 10 min. Solution of standard noradrenaline was injected every working day to create a new calibration table.
The mean values of the first three samples before substrate administration were considered as 100% basal value. All measures of extracellular NA concentrations are expressed as percentage of the baseline value±s.e.mean. One way analysis of variance (ANOVA) for control group or two way ANOVA between control and each treated group was assessed for statistical analysis. After the experiments, rats were sacrificed with an overdose of chloral hydrate and the brains were dissected to check the correct implantation of the probe.

mice = experiment: Tail suspension test; assay type: in vivo; conditions: compared with saline control, FIG. 4
From the text: The tail suspension test as illustrated in FIG. 4 has become one of the most widely used models for assessing antidepressant-like activity in mice. The test is based on the fact that animals subjected to the short-term, inescapable stress of being suspended by their tail, will develop an immobile posture. Antidepressant medications encourage the animal to struggle and promote the occurrence of escape-related behaviour.

T1 sequence (P08913 whole entry): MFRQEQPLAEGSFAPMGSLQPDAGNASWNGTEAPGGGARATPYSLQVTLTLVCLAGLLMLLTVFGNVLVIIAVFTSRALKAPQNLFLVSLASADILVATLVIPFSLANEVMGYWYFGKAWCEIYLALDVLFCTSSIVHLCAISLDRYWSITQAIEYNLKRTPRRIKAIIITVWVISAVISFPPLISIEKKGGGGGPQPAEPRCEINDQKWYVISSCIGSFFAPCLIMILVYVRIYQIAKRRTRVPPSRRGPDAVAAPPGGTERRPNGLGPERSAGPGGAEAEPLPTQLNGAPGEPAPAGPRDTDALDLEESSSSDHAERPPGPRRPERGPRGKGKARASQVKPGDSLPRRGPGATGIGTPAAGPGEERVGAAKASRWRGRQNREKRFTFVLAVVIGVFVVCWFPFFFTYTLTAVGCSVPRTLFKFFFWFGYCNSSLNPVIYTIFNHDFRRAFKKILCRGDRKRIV

- pKi higher than methylene containing counterpart (α2-ARs [2]): 1.10 logarithmic units
Structure (SMILES): N=C(N)Nc1ccc2c(c1)OCCO2 [Compound 31b]
- agonist or antagonist nature at α2-ARs, previously reported (α2-ARs [1]): agonist
- affinity values (pKi) for the α2-ARs (α2-ARs [3]): 8.21

- agonistic or antagonistic properties in [35S]GTPγS experiments (α2-ARs [4]): agonistic properties
- stimulation of [35S]GTPγS binding by the compound on its own (α2-ARs [4]): did not stimulate binding
Structure (SMILES): N=C(N)Nc1ccc2c(c1)Cc1ccc(NC(=N)N)cc1C2 [Compound 21b, 2,6-diguanidino-9,10-dihydroanthracene]
- affinity towards the α2-ARs compared with references (α2-ARs [5]): within the range of those of Idazoxan and/or Clonidine

Structure (SMILES): c1cc2c(cc1NC1=NCCN1)CCCC2 [Compound 10b, imidazolidin-2-ylidene-(5,6,7,8-tetrahydro-naphthalen-2-yl)-amine]
- agonistic or antagonistic properties in [35S]GTPγS experiments (α2-ARs [4]): agonistic properties
- stimulation of [35S]GTPγS binding by the compound on its own (α2-ARs [4]): stimulated binding
- Emax (α2-ARs [4]): 100%
- affinity towards the α2-ARs compared with references (α2-ARs [5]): within the range of those of Idazoxan and/or Clonidine

- agonistic or antagonistic properties in [35S]GTPγS experiments (α2-ARs [4]): agonistic properties
- stimulation of [35S]GTPγS binding by the compound on its own (α2-ARs [4]): did not stimulate binding
Structure (SMILES): c1cc2c(cc1NC1=NCCN1)Cc1ccc(NC3=NCCN3)cc1C2 [Compound 18b, 2,6-di(2-imidazolidinylimino)-9,10-dihydroanthracene]
- affinity towards the α2-ARs compared with references (α2-ARs [5]): within the range of those of Idazoxan and/or Clonidine

Structure (SMILES): N=C(N)Nc1ccc(N)cc1 [Compound 30b]
- affinity values (pKi) for the α2-ARs (α2-ARs [3]): 5.58

Structure (SMILES): CSc1ccc(NC(=N)N)cc1 [Compound 29b]
- affinity values (pKi) for the α2-ARs (α2-ARs [3]): 6.40

- Emax (α2-ARs [4]): 111%
Structure (SMILES): c1ccc(Cc2ccc(NC3=NCCN3)cc2)cc1 [Compound 4b, 1-(2-imidazolidinyliminio)-4-benzylbenzene]

- ability to cross the blood brain barrier (BBB) ([6]; deduced from NA increase after systemic administration): able to cross the blood brain barrier
- agonistic or antagonistic properties in [35S]GTPγS experiments (α2-ARs [4]): antagonistic properties
- stimulation of [35S]GTPγS binding by the compound on its own (α2-ARs [4]): did not stimulate binding
Structure (SMILES): N=C(N)Nc1ccc2c(c1)CCCC2 [Compound 17b, N-(5,6,7,8-tetrahydro-naphthalen-2-yl)-guanidine]
- Emax of increase in extracellular NA levels [6]: 326±113%
- α2-AR antagonist properties in vivo ([6]; local and systemic administration, rats): α2-AR antagonist properties in vivo
- increase of NA extracellular concentration, maximal effect ([6]; systemic (intraperitoneal) administration, evaluated in PFC): 373±73%
- immobility period (mice): slightly shorter immobility period than the saline control
- affinity towards the α2-ARs compared with references (α2-ARs [5]): within the range of those of Idazoxan and/or Clonidine

Structure (SMILES): Cc1ccc(NC2=NCCN2)cc1C [Compound 8b, 1-(2-imidazolidinylimino)-3,4-dimethylbenzene]
- agonistic or antagonistic properties in [35S]GTPγS experiments (α2-ARs [4]): agonistic properties
- stimulation of [35S]GTPγS binding by the compound on its own (α2-ARs [4]): stimulated binding
- Emax (α2-ARs [4]): 89%
- affinity towards the α2-ARs compared with references (α2-ARs [5]): within the range of those of Idazoxan and/or Clonidine

Structure (SMILES): c1ccc2c(c1)OCC(C1=NCCN1)O2 (stereo not drawn) [Idazoxan, reference compound]
- Emax of increase in extracellular NA levels [6]: 235±42%

Structure (SMILES): N=C(N)Nc1ccc2c(c1)OCO2 [Compound 3b]
- affinity values (pKi) for the α2-ARs (α2-ARs [3]): 6.40

Structure (SMILES): Nc1ccc(NC2=NCCN2)cc1 [Compound 30a]
- affinity values (pKi) for the α2-ARs (α2-ARs [3]): 6.92

Structure (SMILES): Cc1ccc(NC2=NCCN2)cc1 [Compound 6b, 1-(2-imidazolidinylimino)-4-methylbenzene]
- agonistic or antagonistic properties in [35S]GTPγS experiments (α2-ARs [4]): agonistic properties
- stimulation of [35S]GTPγS binding by the compound on its own (α2-ARs [4]): stimulated binding
- Emax (α2-ARs [4]): 97%
- affinity towards the α2-ARs compared with references (α2-ARs [5]): within the range of those of Idazoxan and/or Clonidine

Structure (SMILES): c1ccc(Sc2ccc(NC3=NCCN3)cc2)cc1 [Compound 27a]
- affinity values (pKi) for the α2-ARs (α2-ARs [3]): 6.62

Structure (SMILES): COc1ccc(NC2=NCCN2)cc1 [Compound 28a]
- affinity values (pKi) for the α2-ARs (α2-ARs [3]): 7.77

Structure (SMILES): N=C(N)Nc1ccc(Nc2ccccc2)cc1 [Compound 25b]
- affinity values (pKi) for the α2-ARs (α2-ARs [3]): 6.83

Structure (SMILES): COc1ccc(NC(=N)N)cc1 [Compound 28b]
- affinity values (pKi) for the α2-ARs (α2-ARs [3]): 6.39

Structure (SMILES): N=C(N)Nc1ccc(Oc2ccccc2)cc1 [Compound 26b]
- affinity values (pKi) for the α2-ARs (α2-ARs [3]): 6.05

Structure (SMILES): N=C(N)Nc1ccc(Sc2ccccc2)cc1 [Compound 27b]
- affinity values (pKi) for the α2-ARs (α2-ARs [3]): 6.30

Structure (SMILES): c1cc2c(cc1NC1=NCCN1)OCO2 [Compound 3]
- agonist or antagonist nature at α2-ARs, previously reported (α2-ARs [1]): α2-AR antagonists; also recorded: antagonist
- affinity values (pKi) for the α2-ARs (α2-ARs [3]): 7.33

Structure (SMILES): c1cc2c(cc1NC1=NCCN1)OCCO2 [Compound 31a]
- pKi higher than methylene containing counterpart (α2-ARs [2]): 0.52 logarithmic units
- affinity values (pKi) for the α2-ARs (α2-ARs [3]): 7.85

Structure (SMILES): CSc1ccc(NC2=NCCN2)cc1 [Compound 29a]
- affinity values (pKi) for the α2-ARs (α2-ARs [3]): 7.07

Structure (SMILES): c1ccc(Oc2ccc(NC3=NCCN3)cc2)cc1 [Compound 26a]
- affinity values (pKi) for the α2-ARs (α2-ARs [3]): 6.58

Structure (SMILES): c1ccc(Nc2ccc(NC3=NCCN3)cc2)cc1 [Compound 25a]
- affinity values (pKi) for the α2-ARs (α2-ARs [3]): 6.56

From patent US20100331384A1, “GUANIDINE BASED COMPOUNDS” (UNIVERSIDAD DEL PAIS VASCO/EUSKAL HERRIKO UNIBERTSITATEA, priority 2007, published 2010)
